Results from patent publication US20030215462A1, “Use of UGT inhibitors to increase bioavailability” (priority 2001, published 2003).
One block for each compound: values may come before it.

How the values were obtained:
[1] = system: T1, UGT enzymes of human liver microsomes; assay: Kinetic and Ki studies of inhibitors of 7-HFC glucuronidation in human liver microsomes; assay type: biochemical; settings: 7-HFC 20-500 μM
T1 construct: percentage of control metabolism, 7-HFC glucuronidation; percentage of control metabolism, 7-HFC glucuronidation

[2] = system: UGT enzymes of human liver microsomes; assay: Inhibition of raloxifene glucuronidation (G1, G2) in human liver microsomes; assay type: biochemical; settings: raloxifene 50 μM; for % of control metabolism (SD, n = 3), raloxifene glucuronide G1 / % of control metabolism (SD, n = 3), raloxifene glucuronide G2: human liver microsomes 250 μg/ml, 15 min
From the text: Compounds were eluted using a binary solvent gradient system. […] Solvent B was methanol. […] Detection was at 280 nm.

[3] = system: UGT enzymes of pooled human jejunum microsomes; assay: Inhibition of zidovudine glucuronidation in pooled human jejunum microsomes; assay type: biochemical; settings: inhibitor 200 μM
Method: Increasing the microsomal protein concentration to 1 mg/ml and extending the incubation time to 60 min provided meaningful metabolite levels for inhibition studies.

[4] = system: T2, UGT enzymes of human liver microsomes; assay: Inhibition of 2ME2 glucuronidation (MG1, MG2) in human liver microsomes; assay type: biochemical; settings: liver 062101, 2ME2 50 μM
T2 construct: other: liver 062101
From the text: (§1) Compounds were eluted using a binary solvent gradient system where solvent A was dilute phosphoric acid (pH 3) and solvent B was 80:20 acetonitrile-methanol. […] Detection was at 280 nm.

[5] = system: UGT enzymes of pooled human jejunum microsomes; assay: Inhibition of 2ME2 glucuronidation (MG1) in pooled human jejunum microsomes; assay type: biochemical; settings: jejunum HJ61, 2ME2 50 μM
From the text: as §1

UGT1A1 [6] = biological target: T3, UGT1A1 (Homo sapiens, UniProt P22309); assay: in vitro
T3 sequence (P22309 26-533): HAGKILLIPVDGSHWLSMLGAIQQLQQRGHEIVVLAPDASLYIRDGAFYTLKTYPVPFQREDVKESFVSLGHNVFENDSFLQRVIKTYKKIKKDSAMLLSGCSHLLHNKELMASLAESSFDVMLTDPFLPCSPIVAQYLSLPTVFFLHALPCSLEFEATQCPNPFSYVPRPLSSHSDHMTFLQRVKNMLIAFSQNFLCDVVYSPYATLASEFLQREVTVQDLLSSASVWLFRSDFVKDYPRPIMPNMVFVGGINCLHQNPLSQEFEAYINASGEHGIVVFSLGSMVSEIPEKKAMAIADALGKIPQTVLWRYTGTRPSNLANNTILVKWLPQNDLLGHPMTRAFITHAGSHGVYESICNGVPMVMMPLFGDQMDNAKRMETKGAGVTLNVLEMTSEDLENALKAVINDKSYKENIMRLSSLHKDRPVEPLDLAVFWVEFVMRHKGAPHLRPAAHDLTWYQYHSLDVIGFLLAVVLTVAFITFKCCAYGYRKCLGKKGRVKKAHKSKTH
Method: (§2) Compounds were eluted using a binary solvent gradient system. Solvent A was water brought to pH 8 with NH4OH. Solvent B was methanol. Solvent flow rate was 1 ml/min and the column temperature was maintained at 50° C. Detection was at 280 nm. […] The system was then returned to the initial conditions and equilibrated for 3 min.

UGT1A3 = biological target: T4, UGT1A3 (Homo sapiens, UniProt P35503); assay: in vitro
T4 sequence (P35503 29-534): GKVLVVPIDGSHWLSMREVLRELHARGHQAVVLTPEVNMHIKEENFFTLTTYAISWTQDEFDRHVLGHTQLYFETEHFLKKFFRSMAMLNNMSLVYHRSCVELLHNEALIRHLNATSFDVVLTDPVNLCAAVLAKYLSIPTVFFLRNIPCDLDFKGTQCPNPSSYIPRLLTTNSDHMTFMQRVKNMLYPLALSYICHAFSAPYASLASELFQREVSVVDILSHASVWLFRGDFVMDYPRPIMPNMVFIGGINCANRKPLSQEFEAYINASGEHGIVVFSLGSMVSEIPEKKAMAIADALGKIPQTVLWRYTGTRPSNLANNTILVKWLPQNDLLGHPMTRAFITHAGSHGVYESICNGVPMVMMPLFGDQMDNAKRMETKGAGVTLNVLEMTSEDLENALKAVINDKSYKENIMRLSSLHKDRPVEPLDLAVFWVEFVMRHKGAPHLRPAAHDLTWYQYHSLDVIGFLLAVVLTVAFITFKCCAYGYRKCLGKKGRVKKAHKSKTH
Method: as §2

UGT1A9 = biological target: T5, UGT1A9 (Homo sapiens, UniProt O60656); assay: in vitro; settings: pH 7.5, % of control metabolism
T5 sequence (O60656 26-530): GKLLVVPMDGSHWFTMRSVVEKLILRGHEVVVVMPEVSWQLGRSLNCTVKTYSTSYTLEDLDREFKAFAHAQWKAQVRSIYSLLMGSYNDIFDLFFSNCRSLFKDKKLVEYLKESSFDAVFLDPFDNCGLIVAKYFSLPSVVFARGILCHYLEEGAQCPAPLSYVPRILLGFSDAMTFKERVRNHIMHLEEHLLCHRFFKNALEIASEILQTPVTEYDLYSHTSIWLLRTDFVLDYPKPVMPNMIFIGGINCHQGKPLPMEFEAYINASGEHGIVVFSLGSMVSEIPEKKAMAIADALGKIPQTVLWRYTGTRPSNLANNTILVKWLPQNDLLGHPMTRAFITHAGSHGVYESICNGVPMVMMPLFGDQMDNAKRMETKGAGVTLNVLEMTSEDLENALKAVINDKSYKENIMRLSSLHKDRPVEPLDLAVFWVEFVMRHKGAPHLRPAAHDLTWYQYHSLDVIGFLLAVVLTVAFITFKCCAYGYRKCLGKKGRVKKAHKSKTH
Method: as §2

UGT1A10 [7] = biological target: T6, UGT1A10 (Homo sapiens, UniProt Q9HAW8); assay: in vitro; settings: pH 7.5, % of control metabolism
T6 sequence (Q9HAW8 26-530): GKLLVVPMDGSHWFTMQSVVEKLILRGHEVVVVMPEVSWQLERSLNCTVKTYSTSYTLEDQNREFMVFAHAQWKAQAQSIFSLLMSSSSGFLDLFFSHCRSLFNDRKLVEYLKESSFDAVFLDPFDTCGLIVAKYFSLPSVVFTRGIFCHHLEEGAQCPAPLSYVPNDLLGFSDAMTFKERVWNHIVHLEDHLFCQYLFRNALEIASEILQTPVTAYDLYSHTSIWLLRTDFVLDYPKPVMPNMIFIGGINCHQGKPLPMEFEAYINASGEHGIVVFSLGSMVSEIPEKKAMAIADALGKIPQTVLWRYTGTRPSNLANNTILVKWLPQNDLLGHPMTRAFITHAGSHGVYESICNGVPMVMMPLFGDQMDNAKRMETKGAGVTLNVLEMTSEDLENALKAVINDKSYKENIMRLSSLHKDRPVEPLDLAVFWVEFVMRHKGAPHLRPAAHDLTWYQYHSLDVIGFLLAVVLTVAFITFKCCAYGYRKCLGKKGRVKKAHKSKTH
Method: as §2

UGT1A1 [8] = biological target: T3, UGT1A1; assay: Inhibition of raloxifene glucuronidation by recombinant UGT1A1 Supersomes; settings: UGT1A1
Method: as §2

UGT1A10 [9] = biological target: T6, UGT1A10; assay: Inhibition of raloxifene glucuronidation by recombinant UGT1A10 Bacculosomes
Method: as §2

[10] = system: T1, UGT enzymes of human liver microsomes; assay: Inhibition of 7-HFC glucuronidation in human liver microsomes; assay type: biochemical; settings: inhibitor 500 μM; 7-HFC 50 μM, human liver microsomes 100 μg/ml, 15 min
[11] = cited from earlier work
[12] = pH 7.5, % of control metabolism, raloxifene G1
[13] = pH 7.5, % of control metabolism, raloxifene G2

Vmax of 7-HFC glucuronidation (fit of the experiment with this inhibitor) [1]: 64 ± 4 nmol/min/mg
Km ([1]; read-out: Km of 7-HFC glucuronidation (fit of the experiment with this inhibitor)): 87 ± 7 µM
% of control metabolism (SD, n = 3), raloxifene glucuronide G1 ([2]; inhibitor 50 μM): 65 (1) %
% of control metabolism (SD, n = 3), raloxifene glucuronide G1 ([2]; inhibitor 100 μM): 50 (3) %
% of control metabolism (SD, n = 3), raloxifene glucuronide G1 ([2]; inhibitor 500 μM): 6 (1) %
% of control metabolism (SD, n = 3), raloxifene glucuronide G2 ([2]; inhibitor 50 μM): 67 (1) %
% of control metabolism (SD, n = 3), raloxifene glucuronide G2 ([2]; inhibitor 100 μM): 53 (3) %
% of control metabolism (SD, n = 3), raloxifene glucuronide G2 ([2]; inhibitor 500 μM): 6 (1) %
% of control metabolism, raloxifene G1 ([2]; inhibitor 50 μM): 65 (1) %
% of control metabolism, raloxifene G2 ([2]; inhibitor 50 μM): 67 (1) %
% of control metabolism, raloxifene G1 ([2]; inhibitor 100 μM): 50 (3) %
% of control metabolism, raloxifene G2 ([2]; inhibitor 100 μM): 53 (3) %
residual metabolism (percentage of control), zidovudine [3]: 18 (2) %
residual metabolism (% of control), 2ME2 MG1 ([4]; inhibitor 50 μM): 70 (1) %
residual metabolism (% of control), 2ME2 MG2 ([4]; inhibitor 50 μM): 60 (1) %
residual metabolism (% of control), 2ME2 MG1 ([4]; inhibitor 100 μM): 54 (1) %
residual metabolism (% of control), 2ME2 MG2 ([4]; inhibitor 100 μM): 44 (3) %
residual metabolism (% of control), 2ME2 MG1 ([5]; inhibitor 50 μM): 100 (3) %
residual metabolism (% of control), 2ME2 MG1 ([5]; inhibitor 100 μM): 97 (4) %
activity at 15 min, 50 µM (UGT1A1 [6]; [12]): 66%
activity at 15 min, 50 µM (UGT1A1 [6]; [13]): 73%
activity at 15 min, 50 µM (UGT1A1 [6]; pH 7.5, Inhibition of raloxifene glucuronidation, G1, UGT1A1): 66%
activity at 15 min, 50 µM (UGT1A1 [6]; pH 7.5, Inhibition of raloxifene glucuronidation, G2, UGT1A1): 73%
activity at 15 min, 50 µM (UGT1A3; [12]): 74%
activity at 15 min, 50 µM (UGT1A3; [13]): 75%
activity at 15 min, 50 µM (UGT1A3; pH 7.5, Inhibition of raloxifene glucuronidation, G1, UGT1A3): 74%
activity at 15 min, 50 µM (UGT1A3; pH 7.5, Inhibition of raloxifene glucuronidation, G2, UGT1A3): 75%
activity at 15 min, 50 µM (UGT1A9; raloxifene G1): 74%
activity at 15 min, 50 µM (UGT1A9; raloxifene G2): 77%
activity at 15 min, 50 µM (UGT1A10 [7]; raloxifene G1): 97%
activity at 15 min, 50 µM (UGT1A10 [7]; raloxifene G2): 93%
inhibition of raloxifene glucuronidation, in words (UGT1A1 [8]): poor inhibitors
inhibition of raloxifene glucuronidation, in words (UGT1A10 [9]): poor inhibitors
SMILES: O=C(O)Cc1ccccc1Nc1c(Cl)cccc1Cl [Diclofenac, reference compound]

% of control metabolism (SD, n = 3), 7-HFC glucuronidation [10]: 91 (1) %
% of control metabolism (SD, n = 3), raloxifene glucuronide G1 ([2]; inhibitor 500 μM): 70 (4) %
% of control metabolism (SD, n = 3), raloxifene glucuronide G2 ([2]; inhibitor 500 μM): 70 (1) %
SMILES: CCCN(CCC)S(=O)(=O)c1ccc(C(=O)O)cc1 [Probenecid, reference compound]
increase in zidovudine levels on co-administration ([11]; AIDS patients and healthy volunteers): 2 fold
reduction in diflunisal metabolism to acyl- and phenol-glucuronides ([11]; coadministration with diflunisal): 50%
